Experimental data published in patent US20150342899A1 (NOVEN PHARMACEUTICALS, INC., priority 2012, published 2015).

Test: in vitro flux study with human cadaver skin using a Franz cell apparatus
Type: in vitro ADME
Description: An in vitro flux study was conducted with human cadaver skin using a Franz cell apparatus to determine the flux of each drug from the matrix over a 24-hour period.

CC(N)Cc1ccccc1 (stereo not drawn) [amphetamine, alpha-methylphenethylamine]
flux of drug from the matrix (transdermal system from polymer matrix of Example 1, about 1.05 mg/cm^2 amphetamine and about 0.28 mg/cm^2 clonidine, 24-hour period, FIG. 1, one sample): sufficient to achieve a therapeutic effect

Clc1cccc(Cl)c1N=C1NCCN1 [clonidine]
pharmacokinetic (delivery) profile: delivered over an extended period of time
